Data taken from patent US11754498B2, “Single AIEgen for multiple tasks: imaging of dual organelles and evaluation of cell viability” (THE HONG KONG UNIVERSITY OF SCIENCE AND TECHNOLOGY, priority 2019, dated 2023).

Key:
HeLa cells [1] = assay: standard MTT assay, cytotoxicity in HeLa cells; assay type: cell-based; details: incubation at different concentrations for 24 h
Source text: Before bioimaging, the cytotoxicity of TVQE was first studied by standard MTT assay in HeLa cells.

[2] = system: mitochondria in live HeLa cells; assay: co-stain with mitochondrial probe MitoTracker Deep Red FM (MTDR), CLSM; assay type: cell-based; details: 2 μM TVQE, 0.2 μM MTDR
Protocol: (§1) To further confirm the staining location of TVQE, co-stain experiments with commercialized mitochondrial probe MitoTracker Deep Red FM (MTDR) and lipid-droplet probe Nile Red were performed.

[3] = system: lipid droplets in live HeLa cells; assay: co-stain with lipid-droplet probe Nile Red, CLSM; assay type: cell-based; details: 2 μM TVQE, 1 μM Nile Red
Protocol: as §1

[4] = absorption and fluorescence (FL) spectra, photophysical properties; assay type: physicochemical
Protocol: The absorption and fluorescence (FL) spectra of TVQE and TVQ in different solvents were tested and the results are shown in FIGS. 11A-11D and FIGS. 12A-12D.
Furthermore, fluorescence spectra of TVQE in EtOH and EtOH/hexane mixtures with different hexane fraction were shown in FIG. 11A. In pure EtOH, TVQE was weakly emissive with a quantum yield of 0.7%. With the increase of hexane volume content, the FL intensity increased gradually, accompanied with blue-shift in FL maximum from 673 nm to 637 nm, shown in FIG. 11B. When fH=90%, FL intensity reached the maximum with a quantum yield of 3% due to the formation of aggregates, indicating the AIE feature of TVQE. The FL intensity decreased when fH increased to 95%, probably due to the change of the morphology and size of the aggregates. […]

esterase = assay: FL spectra of TVQE treated with active esterase in PBS; assay type: biochemical; details: room temperature
Protocol: To get insight into the mechanism of TVQE to esterase, the FL spectra of TVQE treated with active esterase in PBS at room temperature were measured and shown in FIG. 11D. At the beginning, only a weak emission peak at around 700 nm was detected. As treatment time progressed, the fluorescence at about 520 nm increased gradually, which was consistent with the FL spectra of TVQ in PBS, depicted in FIG. 12B.

live HeLa cells = assay: CLSM imaging of live HeLa cells, in situ emission spectra and time tracking; assay type: cell-based
Protocol: Bioimaging experiments were then carried out in live HeLa cells. Based on the spectra imaging function of confocal laser scanning microscope (CLSM), the real color images of live HeLa cells stained with TVQE and in situ emission spectra were obtained (FIGS. 14A-14C and FIG. 15A). […] As designed, TVQE can be hydrolyzed by esterase to provide TVQ. It was speculated that the red emission came from TVQE while the blue emission was from the hydrolysate TVQ.
The in situ imaging performance of TVQE in live HeLa cells at different time points was then tracked and investigated (FIGS. 16A-16B and FIGS. 17A-17B). It could be observed that TVQE first stained mitochondria and emitted red fluorescence. Then, after about 5 min, lipid droplets in the blue channel were clearly illuminated. It should be noted that the fluorescence intensity in the red channel increased at the beginning, reached maximum at about 12 min, then decreased gradually. The fluorescence in the blue channel increased with increased time. […] In addition, the lipophilic hydrolysate tended to accumulate in lipid droplets gradually.

HeLa cells [5] = assay: flow cytometry of live, early apoptotic, late apoptotic and dead cells stained by TVQE; assay type: cell-based
Protocol: As esterase activity can reflect cell viability, an investigation was conducted to determine whether TVQE could be used to evaluate cell viability. […] In apoptotic cells, the esterase activity decreased, so that the emission in the blue channel was much weaker than that in live cells. When HeLa cells were treated with 10 mM H2O2 for 1 h and 4.5 h, early and late apoptotic HeLa cells could be clearly and differentially visualized (FIGS. 18 and 19). […] However, nearly no blue-emissive fluorescence signal but strong red emission was detected in dead cells because of the inactivated esterase activity. […] The fluorescence changes in both blue and red channels of cells in different states were obtained from flow cytometry (Becton Dickinson FACSAria Mu). Referring to FIG. 20C, numerical values in the cyan region, e.g., mean fluorescent intensity values around 3.2×10^4 and 650 in the blue and red channels, respectively correspond to cells that were alive, numerical values in the red region, e.g., mean fluorescence intensity values around 1.4×10^4 and 780 in the blue and red channels, respectively, correspond to cells in early apoptotic stages, numerical values in the orange region, e.g., mean fluorescence intensity values around 1700 and 4200 in the blue and red channels, respectively, correspond to cells in the late apoptotic stages, and numerical values in the green region, e.g., mean fluorescence intensity values around 780 and 1.5×10^4 in the blue and red channels, respectively, correspond to cells that were dead.
Flow cytometry is a widely used tool for statistical analysis. It has different laser sources and is suitable for simultaneous detection of multichannel fluorescence signals. A flow cytometry assay was performed to monitor the fluorescence changes in both red and blue channels of cells at different physiological stages. […] Compared with live cells, the blue emission in early apoptotic cells was a little weaker. […] The red emission in dead cells was stronger in comparison with late apoptotic cells.

[6] = live HeLa cells stained with 2 μM TVQE, in situ emission spectra
[7] = cells in early apoptotic stages (10 mM H2O2)
[8] = cells in the late apoptotic stages (10 mM H2O2)

Stokes shift ([4]; EtOH): 123 nm
Φ (fluorescence quantum yield) ([4]; EtOH): 0.7%
ε (molar absorptivity at maximum absorption wavelength) ([4]; EtOH): 18900 M⁻¹ cm⁻¹
λabs (absorption maximum) ([4]; EtOH): 548 nm
λem (emission maximum) ([4]; EtOH): 671 nm
Stokes shift ([4]; Hexane/EtOH = 9/1): 131 nm
ε (molar absorptivity at maximum absorption wavelength) ([4]; Hexane/EtOH = 9/1): 18800 M⁻¹ cm⁻¹
λabs (absorption maximum) ([4]; Hexane/EtOH = 9/1): 527 nm
λem (emission maximum) ([4]; Hexane/EtOH = 9/1): 656 nm
Φ (fluorescence quantum yield) ([4]; Hexane/EtOH = 9/1 (fH=90%)): 3%
Stokes shift ([4]; THF): 156 nm
Φ (fluorescence quantum yield) ([4]; THF): 1.3%
ε (molar absorptivity at maximum absorption wavelength) ([4]; THF): 16600 M⁻¹ cm⁻¹
λabs (absorption maximum) ([4]; THF): 522 nm
λem (emission maximum) ([4]; THF): 678 nm
Stokes shift ([4]; Tol): 125 nm
Φ (fluorescence quantum yield) ([4]; Tol): 6.6%
ε (molar absorptivity at maximum absorption wavelength) ([4]; Tol): 17300 M⁻¹ cm⁻¹
λabs (absorption maximum) ([4]; Tol): 534 nm
λem (emission maximum) ([4]; Tol): 659 nm
fluorescence emission ([4]; solid state): 739 nm
quantum yield ([4]; solid state): 2.3%
fluorescence increasing gradually as treatment time progressed (esterase; esterase in PBS): about 520 nm
emission peak at the beginning (esterase; esterase in PBS, beginning of treatment): around 700 nm
Structure (SMILES): CC(=O)Oc1ccc(C[n+]2ccc(/C=C/c3ccc(N(c4ccccc4)c4ccccc4)cc3)c3ccccc32)cc1 [TVQE]
viability of HeLa cells (HeLa cells [1]): higher than 85%
co-localization coefficient with MTDR [2]: 0.9
co-localization coefficient with Nile Red [3]: 0.87
hydrolysis by esterase (esterase; active esterase (1 U/mL) in PBS): could be hydrolyzed to TVQ with blue emission by esterase
blue emission inside cells (live HeLa cells; [6]): 480 nm
red emission inside cells (live HeLa cells; [6]): 650 nm
time after which lipid droplets in the blue channel were clearly illuminated (live HeLa cells; live HeLa cells, 2 μM TVQE): about 5 min
time at which fluorescence intensity in the red channel reached maximum (live HeLa cells; live HeLa cells, 2 μM TVQE): about 12 min
mean fluorescence intensity, blue channel (HeLa cells [5]; [7]): around 1.4×10^4
mean fluorescence intensity, red channel (HeLa cells [5]; [7]): around 780
mean fluorescence intensity, blue channel (HeLa cells [5]; [8]): around 1700
mean fluorescence intensity, red channel (HeLa cells [5]; [8]): ~4200
mean fluorescent intensity, blue channel (HeLa cells [5]; cells that were alive): around 3.2×10^4
mean fluorescent intensity, red channel (HeLa cells [5]; cells that were alive): ~650
mean fluorescence intensity, blue channel (HeLa cells [5]; cells that were dead): around 780
mean fluorescence intensity, red channel (HeLa cells [5]; cells that were dead): ~1.5×10^4
